Data reported in the NIST ThermoML archive (doi:10.1016/j.jct.2013.07.010).
± gives the expanded uncertainty stated by the source.

Columns and labels:
[1] = 101 kPa, Liquid; for viscosity: Capillary tube (Ostwald / Ubbelohde) method; for mass density: Vibrating tube method
[2] = cn = amount concentration of the nth substance listed, in mol/dm3; conditions: 101 kPa, Liquid; for viscosity: Capillary tube (Ostwald / Ubbelohde) method; for mass density: Vibrating tube method

`CO` [methanol] showed a viscosity ([1]; 298.15 K) of 0.5451 ± 0.011 mPa·s, a mass density ([1]; 298.15 K) of 786.62 ± 1 kg/m3 and a viscosity ([1]; 308.15 K) of 0.476 ± 0.01 mPa·s. The mass density ([1]; 308.15 K) was 777.18 ± 1 kg/m3, the viscosity ([1]; 318.15 K) was 0.4183 ± 0.0089 mPa·s and the mass density ([1]; 318.15 K) was 767.74 ± 1 kg/m3.

With `CO` [methanol] + CCCC[N+](CCCC)(CCCC)CCCC.[Br-] the viscosity ([2]; 298.15 K, c2 = 0) was 0.5451 ± 0.011 mPa·s, the mass density ([2]; 298.15 K, c2 = 0) was 786.62 ± 1 kg/m3 and the viscosity ([2]; 308.15 K, c2 = 0) was 0.476 ± 0.01 mPa·s. For the same compound, the mass density ([2]; 308.15 K, c2 = 0) was 777.18 ± 1 kg/m3, the viscosity ([2]; 318.15 K, c2 = 0) was 0.4183 ± 0.0089 mPa·s and the mass density ([2]; 318.15 K, c2 = 0) was 767.74 ± 1 kg/m3.

`CCCC[N+](CCCC)(CCCC)CCCC.[Br-]` [tetrabutylammonium bromide] + CO showed a viscosity ([2]; 298.15 K, c1 = 0.02) of 0.5542 ± 0.012 mPa·s, a viscosity ([2]; 298.15 K, c1 = 0.04) of 0.581 ± 0.012 mPa·s and a viscosity ([2]; 298.15 K, c1 = 0.05) of 0.5973 ± 0.013 mPa·s. For the same compound, the mass density ([2]; 298.15 K, c1 = 0.02) was 790.69 ± 1 kg/m3, the mass density ([2]; 298.15 K, c1 = 0.04) was 792.74 ± 1 kg/m3 and the mass density ([2]; 298.15 K, c1 = 0.05) was 794.89 ± 1 kg/m3. The viscosity ([2]; 308.15 K, c1 = 0.02) was 0.4951 ± 0.01 mPa·s, the viscosity ([2]; 308.15 K, c1 = 0.04) was 0.5135 ± 0.011 mPa·s and the viscosity ([2]; 308.15 K, c1 = 0.05) was 0.5274 ± 0.011 mPa·s. For the same compound, the mass density ([2]; 308.15 K, c1 = 0.02) was 780.94 ± 1 kg/m3, the mass density ([2]; 308.15 K, c1 = 0.04) was 783.43 ± 1 kg/m3 and the mass density ([2]; 308.15 K, c1 = 0.05) was 785.33 ± 1 kg/m3. For the same compound, the viscosity ([2]; 318.15 K, c1 = 0.02) was 0.439 ± 0.0093 mPa·s, the viscosity ([2]; 318.15 K, c1 = 0.04) was 0.4469 ± 0.0095 mPa·s and the viscosity ([2]; 318.15 K, c1 = 0.05) was 0.4584 ± 0.0097 mPa·s. The mass density ([2]; 318.15 K, c1 = 0.02) was 771.06 ± 1 kg/m3, the mass density ([2]; 318.15 K, c1 = 0.04) was 773.92 ± 1 kg/m3 and the mass density ([2]; 318.15 K, c1 = 0.05) was 775.68 ± 1 kg/m3.
